Each block holds one compound with its values, some of them ahead of it.
Assays:
[1] = target: T1, plasma kallikrein (Homo sapiens, UniProt P03952); test: Neat human plasma assay: contact pathway-activated (FXIIa) plasma, PFR-AMC substrate; type: biochemical; conditions: citrated human plasma (78% final), 10 nM human FXIIa, 100 μM PFR-AMC, room temperature
T1 construct: from tissue; host or cells: sodium citrate collected human plasma (78% final)
Protocol: To analyze inhibition of plasma kallikrein in an ex vivo setting, the potency of compounds was measure in contact pathway-activated plasma assays. In a fluorogenic peptide substrate assay, test compounds dissolved in DMSO were added to sodium citrate collected human or rat plasma in a 96-well microplate. Alternatively, citrated plasma was collected from rats administered the compounds orally or by IV. 10 nM of human FXIIa (Enzyme Research Laboratories) diluted in pKal buffer (20 mM Tris-HCl, pH 7.5, 150 mM NaCl, 1 mM EDTA, 0.1% PEG-8000, and 0.1% Triton X-100) was added to the plasma, followed by the 100 μM of the profluorescent, synthetic plasma kallikrein substrate PFR-AMC (also diluted in pKal buffer). Final plasma concentration in the reaction was 78%. Fluorescence was immediately monitored by excitation/emission wavelengths of 360 nm/480 nm respectively over a period of 5 minutes in a microplate reader. The resulting linear increase in fluorescence emission (reflecting pKal proteolysis of PFR-AMC substrate) was fit to extract a proteolytic rate (fluorescent units over time), and this rate was subsequently plotted against compound inhibitor concentration. Resulting plots were fit to a standard 4-parameter IC50/IC90 equation to determine min/max values, IC50/90, and slope. All experimental steps were performed at room temperature.

[2] = target: human activated kallikrein enzyme (Homo sapiens, UniProt P03952); test: Inhibition of activated plasma kallikrein, fluorogenic peptide substrate (PFR-AMC) assay, 500 pM enzyme format; type: biochemical; conditions: 500 pM activated kallikrein, 300 uM PFR-AMC, 30 min preincubation, 10 min reaction, room temperature; read-out: Primary Dose Response Assay: Average EC50
Protocol: Compounds were evaluated for inhibition of the human activated kallikrein enzyme in two formats of an assay employing a fluorogenic peptide substrate. In one assay format, the concentrations of reagents were as follows: 20 mM Tris pH 7.5, 1 mM EDTA, 150 mM sodium chloride, 0.1% PEG-400, 0.1% Triton X-100, 500 pM activated kallikrein enzyme, 300 uM Pro-Phe-Arg-7-amido-4-methylcoumarin (PFR-AMC) substrate. Prior to reaction initiation with substrate, enzyme and inhibitors were preincubated for 30 min at room temperature. After initiation with substrate, reactions were incubated for 10 min at room temperature and fluorescence emission at 460 nm from 380 nm excitation measured with a microplate reader. In another assay format, the concentrations of reagents were as follows: 20 mM Tris pH 7.5, 1 mM EDTA, 150 mM sodium chloride, 0.1% PEG-400, 0.1% Triton X-100, 5 pM activated kallikrein enzyme, 300 uM PFR-AMC substrate. Prior to reaction initiation with substrate, enzyme and inhibitors were preincubated for 30 min at room temperature. After initiation with substrate, reactions were incubated for 18 hr at room temperature and fluorescence emission at 460 nm from 380 nm excitation measured with a microplate reader.
Table 6 provides the results of the assay in the format with 500 pM activated kallikrein assay.

T1 sequence (P03952 391-638 limits assumed): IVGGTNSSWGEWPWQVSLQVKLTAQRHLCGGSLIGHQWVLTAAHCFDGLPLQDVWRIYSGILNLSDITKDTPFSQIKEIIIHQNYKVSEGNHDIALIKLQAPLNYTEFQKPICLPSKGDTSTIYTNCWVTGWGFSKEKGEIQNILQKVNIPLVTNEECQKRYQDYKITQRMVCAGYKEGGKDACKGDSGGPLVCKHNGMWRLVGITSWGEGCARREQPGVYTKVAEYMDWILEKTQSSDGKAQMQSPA
T1 sequence (P03952 20-390 partner limits assumed): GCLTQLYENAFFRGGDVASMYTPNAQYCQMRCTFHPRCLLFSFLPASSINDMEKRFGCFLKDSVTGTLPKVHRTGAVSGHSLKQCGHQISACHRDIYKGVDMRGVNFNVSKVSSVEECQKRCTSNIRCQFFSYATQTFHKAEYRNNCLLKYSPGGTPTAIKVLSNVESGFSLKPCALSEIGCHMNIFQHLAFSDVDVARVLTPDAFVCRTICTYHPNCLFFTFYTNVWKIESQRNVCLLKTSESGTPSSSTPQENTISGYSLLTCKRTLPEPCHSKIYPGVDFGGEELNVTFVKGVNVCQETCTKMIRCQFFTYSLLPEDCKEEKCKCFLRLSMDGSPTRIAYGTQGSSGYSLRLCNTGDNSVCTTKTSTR
human activated kallikrein enzyme, sequence (P03952 391-638 limits assumed): as the sequence (P03952 391-638 limits assumed) above
human activated kallikrein enzyme, sequence (P03952 20-390 partner limits assumed): as the sequence (P03952 20-390 partner limits assumed) above

SMILES: Oc1cc([C@H]2C[C@@H]2c2cccc(Cl)c2)nc2cc(NCc3cn4cc(C5CC5)ccc4n3)ccc12 [Example 51, 2-((1S,2S)-2-(3-chlorophenyl)cyclopropyl)-7-(((6-cyclopropylimidazo[1,2-a]pyridin-2-yl)methyl)amino)quinolin-4-ol]
IC90 [1]: 1500 to 10000 nM
EC50 [2]: 1 to 10 nM

SMILES: Cc1ccnc([C@H]2C[C@@H]2C2=NS(=O)(=O)c3ccc(NC(C)c4cn5cc(C6CC6)ccc5n4)cc3N2)n1 (stereo partly drawn) [Example 87, 6-((1-(6-cyclopropylimidazo[1,2-a]pyridin-2-yl)ethyl)amino)-3-((1S,2S)-2-(4-methylpyrimidin-2-yl)cyclopropyl)-4H-benzo[e][1,2,4]thiadiazine 1,1-dioxide]
IC90 [1]: 400 to 1500 nM
EC50 [2]: ≤ 1 nM

SMILES: Cc1ccnc([C@H]2C[C@@H]2c2cc(N(C)S(C)(=O)=O)c3ccc(NCc4cn5cc(C6CC6)cc(N6CC(=O)N(C)C6=O)c5n4)cc3n2)n1 (racemic) [Example 34, rac-N-(7-(((6-cyclopropyl-8-(3-methyl-2,4-dioxoimidazolidin-1-yl)imidazo[1,2-a]pyridin-2-yl)methyl)amino)-2-((1S*,2S*)-2-(4-methylpyrimidin-2-yl)cyclopropyl)quinolin-4-yl)-N-methylmethanesulfonamide]
IC90 [1]: 1500 to 10000 nM
EC50 [2]: 1 to 10 nM

SMILES: COc1cc([C@H]2C[C@@H]2c2nccc(C)n2)nc2cc(NCc3cn4cc(C5CC5)ccc4n3)ccc12 (racemic) [Example 20, rac-N-((6-cyclopropylimidazo[1,2-a]pyridin-2-yl)methyl)-4-methoxy-2-((1S*,2S*)-2-(4-methylpyrimidin-2-yl)cyclopropyl)quinolin-7-amine]
IC90 [1]: 10000 to 22000 nM
EC50 [2]: 1 to 10 nM

SMILES: Cc1ccnc([C@H]2C[C@@H]2c2cc(O)c3cnc(NCc4cn5cc(C6CC6)cc(N6CC(=O)N(C)C6=O)c5n4)nc3n2)n1 (racemic) [Example 86, rac-1-(6-cyclopropyl-2-(((5-hydroxy-7-((1S*,2S*)-2-(4-methylpyrimidin-2-yl)cyclopropyl)pyrido[2,3-d]pyrimidin-2-yl)amino)methyl)imidazo[1,2-a]pyridin-8-yl)-3-methylimidazolidine-2,4-dione]
IC90 [1]: 1500 to 10000 nM
EC50 [2]: ≤ 1 nM

SMILES: COCc1cc(NCc2cn3cc(C4CC4)cc(N4CC(=O)N(C)C4=O)c3n2)cc2nc([C@H]3C[C@@H]3c3nccc(C)n3)ccc12 (racemic) [Example 75, rac-1-(6-cyclopropyl-2-(((5-(methoxymethyl)-2-((1S*,2S*)-2-(4-methylpyrimidin-2-yl)cyclopropyl)quinolin-7-yl)amino)methyl)imidazo[1,2-a]pyridin-8-yl)-3-methylimidazolidine-2,4-dione]
IC90 [1]: 400 to 1500 nM
EC50 [2]: ≤ 1 nM

SMILES: Cc1ccnc([C@H]2C[C@@H]2c2cc(-n3cncn3)c3ccc(NCc4cn5cc(C6CC6)cc(N6CC(=O)N(C)C6=O)c5n4)cc3n2)n1 (racemic) [Example 26, rac-1-(6-cyclopropyl-2-(((2-((1S*,2S*)-2-(4-methylpyrimidin-2-yl)cyclopropyl)-4-(1H-1,2,4-triazol-1-yl)quinolin-7-yl)amino)methyl)imidazo[1,2-a]pyridin-8-yl)-3-methylimidazolidine-2,4-dione]
IC90 [1]: 1500 to 10000 nM
EC50 [2]: 1 to 10 nM

SMILES: Cc1ccnc([C@H]2C[C@@H]2c2ccc3ccc(NCc4cn5cc(C6CC6)cc(N6CC(=O)N(C)C6=O)c5n4)cc3n2)n1 (single isomer, unassigned) [Example 59]
IC90 [1]: 1500 to 10000 nM
EC50 [2]: ≤ 1 nM

SMILES: Cc1ccnc(C2CC2c2cc(=O)c3ccc(NCc4cn5cc(C6CC6)cc(N6CC(=O)N(C)C6=O)c5n4)cc3[nH]2)n1 (single isomer, unassigned) [Example 13, 1-(6-cyclopropyl-2-(((2-(2-(4-methylpyrimidin-2-yl)cyclopropyl)-4-oxo-1,4-dihydroquinolin-7-yl)amino)methyl)imidazo[1,2-a]pyridin-8-yl)-3-methylimidazolidine-2,4-dione]
IC90 [1]: ≤ 400 nM
EC50 [2]: 1 to 10 nM

SMILES: Cc1ccnc([C@H]2C[C@@H]2c2cc(N3CC4(COC4)C3)c3cnc(OCc4cn5cc(C6CC6)cc(N6CC(=O)N(C)C6=O)c5n4)cc3n2)n1 [Example 103, 1-(6-cyclopropyl-2-(((2-((1S,2S)-2-(4-methylpyrimidin-2-yl)cyclopropyl)-4-(2-oxa-6-azaspiro[3.3]heptan-6-yl)-1,6-naphthyridin-7-yl)oxy)methyl)imidazo[1,2-a]pyridin-8-yl)-3-methylimidazolidine-2,4-dione]
IC90 [1]: ≤ 400 nM
EC50 [2]: ≤ 1 nM

More lines, now with the values ahead:

IC90 [1]: ≤ 400 nM
EC50 [2]: ≤ 1 nM
SMILES: Cc1ccnc([C@H]2C[C@@H]2c2cc(N(C)CC(C)(C)O)c3ccc(NCc4cn5cc(C6CC6)cc(N6CC(=O)N(C)C6=O)c5n4)cc3n2)n1 [Example 100, 1-(6-cyclopropyl-2-(((4-((2-hydroxy-2-methylpropyl)(methyl)amino)-2-((1S,2S)-2-(4-methylpyrimidin-2-yl)cyclopropyl)quinolin-7-yl)amino)methyl)imidazo[1,2-a]pyridin-8-yl)-3-methylimidazolidine-2,4-dione]

IC90 [1]: ≤ 400 nM
EC50 [2]: ≤ 1 nM
SMILES: Cc1ccnc([C@H]2C[C@@H]2c2cc(N3CC4(COC4)C3)c3ccc(N(C)Cc4cn5cc(C6CC6)cc(N6CC(=O)N(C)C6=O)c5n4)cc3n2)n1 [Example 98, 1-(6-cyclopropyl-2-((methyl(2-((1S,2S)-2-(4-methylpyrimidin-2-yl)cyclopropyl)-4-(2-oxa-6-azaspiro[3.3]heptan-6-yl)quinolin-7-yl)amino)methyl)imidazo[1,2-a]pyridin-8-yl)-3-methylimidazolidine-2,4-dione]

IC90 [1]: 1500 to 10000 nM
EC50 [2]: 1 to 10 nM
SMILES: Cc1ccnc([C@H]2C[C@@H]2c2ccc3ccc(NCc4cn5cc(C6CC6)nc(N6CC(=O)N(C)C6=O)c5n4)cc3n2)n1 (racemic) [Example 106, rac-1-(6-cyclopropyl-2-(((2-((1S*,2S*)-2-(4-methylpyrimidin-2-yl)cyclopropyl)quinolin-7-yl)amino)methyl)imidazo[1,2-a]pyrazin-8-yl)-3-methylimidazolidine-2,4-dione]

IC90 [1]: ≤ 400 nM
EC50 [2]: ≤ 1 nM
SMILES: Cc1cc(N2CC(=O)N(C)C2=O)c2nc(COc3ccc4c(N5CC6(COC6)C5)cc([C@H]5C[C@@H]5c5nccc(C)n5)nc4c3)cn2c1 [Example 96, 3-methyl-1-(6-methyl-2-(((2-((1S,2S)-2-(4-methylpyrimidin-2-yl)cyclopropyl)-4-(2-oxa-6-azaspiro[3.3]heptan-6-yl)quinolin-7-yl)oxy)methyl)imidazo[1,2-a]pyridin-8-yl)imidazolidine-2,4-dione]

IC90 [1]: 1500 to 10000 nM
EC50 [2]: 1 to 10 nM
SMILES: CN1C(=O)CN(c2cc(C3CC3)cn3cc(CNc4ccc5c(=O)cc([C@H]6C[C@@H]6c6cccc(Cl)c6)[nH]c5c4)nc23)C1=O (racemic) [Example 5, rac-1-(2-(((2-((1S*,2S*)-2-(3-chlorophenyl)cyclopropyl)-4-oxo-1,4-dihydroquinolin-7-yl)amino)methyl)-6-cyclopropylimidazo[1,2-a]pyridin-8-yl)-3-methylimidazolidine-2,4-dione]

IC90 [1]: 1500 to 10000 nM
EC50 [2]: 1 to 10 nM
SMILES: CN1C(=O)CN(c2cc(C3CC3)cn3cc(CNc4ccc5c(=O)[nH]c([C@H]6C[C@@H]6c6cccc(Cl)c6)nc5c4)nc23)C1=O [Example 6, 1-(2-(((2-((1S,2S)-2-(3-chlorophenyl)cyclopropyl)-4-oxo-3,4-dihydroquinazolin-7-yl)amino)methyl)-6-cyclopropylimidazo[1,2-a]pyridin-8-yl)-3-methylimidazolidine-2,4-dione]

IC90 [1]: 1500 to 10000 nM
EC50 [2]: ≤ 1 nM
SMILES: Cc1ccnc([C@H]2C[C@@H]2c2cc(CC#N)c3ccc(NCc4cn5cc(C6CC6)cc(N6CC(=O)N(C)C6=O)c5n4)cc3n2)n1 (racemic) [Example 85, rac-2-(7-(((6-cyclopropyl-8-(3-methyl-2,4-dioxoimidazolidin-1-yl)imidazo[1,2-a]pyridin-2-yl)methyl)amino)-2-((1S*,2S*)-2-(4-methylpyrimidin-2-yl)cyclopropyl)quinolin-4-yl)acetonitrile]
